Assay results from PubChem BioAssay AID505 (SGCOxCompounds, 2006).
“And” between values parts separate entries of the source, which are not always exact repeats. Equal values may be shown once.

These compounds were tested against Serine/threonine-protein kinase pim-2 (Homo sapiens) (UniProt Q9P1W9) (assay: compound-induced PIM2 thermal stabilization – biophysical, human, melting temperature shift (AID 505)). Details: Recombinant PIM2 thermal shift, Tm change; at 10 µM; buffer 10 mM HEPES; pH 7.5; NaCl 100 mM; with 50 µM L-Arg/L-Glu (1:1); stronger effect = higher value.
Serine/threonine-protein kinase pim-2 (Homo sapiens), sequence (Q9P1W9 whole entry, looked up): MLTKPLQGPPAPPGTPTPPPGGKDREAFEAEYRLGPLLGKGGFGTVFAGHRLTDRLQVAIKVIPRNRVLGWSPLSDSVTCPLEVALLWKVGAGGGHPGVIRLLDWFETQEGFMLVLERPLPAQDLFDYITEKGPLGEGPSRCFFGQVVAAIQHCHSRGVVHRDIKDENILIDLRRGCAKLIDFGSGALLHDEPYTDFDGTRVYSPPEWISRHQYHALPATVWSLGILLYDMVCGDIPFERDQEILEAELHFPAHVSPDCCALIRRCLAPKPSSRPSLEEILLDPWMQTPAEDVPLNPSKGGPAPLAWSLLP
O=c1c(O)c(-c2cc(O)c(O)c(O)c2)oc2cc(O)cc(O)c12 gave a Tm shift of 4.74 Celsius. Clc1cccc(-c2cnc3ccc(NCCc4ccccn4)nn23)c1 gave a Tm shift of 3.46 Celsius. O=C1C(=O)C(c2cc(O)c(O)c(O)c2)Oc2cc(O)cc(O)c21 (configuration not stated) was tested, and the Tm shift was 4.13 Celsius. O=C1NC(=O)c2c1c1c3ccccc3n3c1c1c2c2ccccc2n1[C@@H]1CCC3O1 was tested, and the Tm shift was 11.1 Celsius. CN(C)CCCn1cc(C2=C(c3c[nH]c4ccccc34)C(=O)NC2=O)c2ccccc21 gave a Tm shift of 4.21 Celsius. NC1=N/C(=C2/CCNC(=O)c3[nH]c(Br)cc32)C(=O)N1 gave a Tm shift of 3.73 Celsius. O=C1NC(=O)c2c1c1c3ccccc3[nH]c1c1[nH]c3cc(Br)ccc3c21 showed a Tm shift of 6.31 Celsius. Compound Clc1cccc(-c2cnc3ccc(NC4CCOCC4)nn23)c1 has a Tm shift of 5.64 Celsius. CC(=O)c1cccc(-c2cnc3ccc(NCC4CC4)nn23)c1 was tested, and the Tm shift was 4.29 Celsius. Clc1cccc(Nc2ccn3ncc(-c4ccsc4)c3n2)c1 showed a Tm shift of 3.45 Celsius. Compound Fc1ccc(CNc2ccc3ncc(-c4ccco4)n3n2)cc1 has a Tm shift of 3.36 Celsius.

Same assay, conditions: Recombinant PIM2 thermal shift, Tm change; at 10 µM; buffer 10 mM HEPES; pH 7.5; NaCl 150 mM; with 50 µM L-Arg/L-Glu (1:1); stronger effect = higher value
In the case of O=C1NCc2c1c1c3ccccc3[nH]c1c1[nH]c3ccccc3c21, the Tm shift is reported as 5.2 Celsius. Compound O=c1c(O)c(-c2ccc(O)cc2)oc2cc(O)cc(O)c12 has a Tm shift of 5.81 Celsius. Compound N=C(N)SCCCn1cc(C2=C(c3c[nH]c4ccccc34)C(=O)NC2=O)c2ccccc21 has a Tm shift of 5.64 Celsius. For COc1cc(/C=C/C(=O)CC(=O)/C=C/c2ccc(O)c(OC)c2)ccc1O, the Tm shift was 4.3 Celsius. In the case of Fc1cccc(-c2cnc3ccc(NC4CCOCC4)nn23)c1, the Tm shift is reported as 3.17 Celsius. With O=C1Nc2ccc(I)cc2/C1=C/c1cc(Br)c(O)c(Br)c1 the Tm shift was 10.2 Celsius. Cc1c2ccncc2c(C)c2c1[nH]c1ccccc12 was tested, and the Tm shift was 4.8 Celsius. Compound O=C1NC(=O)C(c2c[nH]c3ccccc23)=C1c1c[nH]c2ccccc12 has a Tm shift of 4.02 Celsius. In the case of O=c1c(O)c(-c2ccc(O)c(O)c2)oc2cc(O)cc(O)c12, the Tm shift is reported as 8.58 Celsius and 7.16 Celsius. For Cc1cc(O)c2c(c1)C(=O)c1cc(O)cc(O)c1C2=O, the Tm shift was 4.2 Celsius. O=c1oc2cc(O)ccc2c2oc3cc(O)ccc3c12 gave a Tm shift of 4.4 Celsius. With O=c1c(-c2ccc(O)cc2)coc2cc(O)cc(O)c12 the Tm shift was 3.3 Celsius. COC(=O)c1cnc2oc3ccc(O)cc3c2c1-c1ccccc1 showed a Tm shift of 6.25 Celsius. For O=C1C(=O)C(c2cccc(O)c2)Oc2ccccc21 (configuration not stated), the Tm shift was 4.5 Celsius. CC(C)[C@@H](CO)Nc1ccc2ncc(-c3cccc(C(F)(F)F)c3)n2n1 gave a Tm shift of 4.39 Celsius. Compound CN(C)CCCn1cc(C2=C(c3c[nH]c4ccccc34)C(=O)NC2=O)c2ccccc21 has a Tm shift of 6.1 Celsius. Work on CCC(CO)Nc1ccc2ncc(-c3ccc(O)cc3)n2n1 (configuration not stated) yielded a Tm shift of 4.74 Celsius. For COc1c(C=O)c(O)cc2c1C(=O)c1ccccc1C2=O, the Tm shift was 3.3 Celsius. O=c1cc(-c2ccc(O)c(O)c2)oc2cc(O)cc(O)c12 gave a Tm shift of 4.14 Celsius. In the case of Cc1c(O)cc(O)c2c1OC(c1ccc(O)c(O)c1)C(=O)C2=O (configuration not stated), the Tm shift is reported as 4.1 Celsius. O=C1C(=O)C(c2ccccc2)Oc2ccc(O)cc21 (configuration not stated) was tested, and the Tm shift was 3.1 Celsius. CC(C)[C@@H](CO)Nc1ccc2ncc(-c3cccc(Cl)c3)n2n1 showed a Tm shift of 4.69 Celsius. Cn1cc(C2=C(c3c4n(c5ccccc35)CCC(CN)C4)C(=O)NC2=O)c2ccccc21 (configuration not stated) gave a Tm shift of 3.6 Celsius. Work on O=c1c(O)c(-c2ccc(O)c(O)c2)oc2cc(O)ccc12 yielded a Tm shift of 6.11 Celsius. In the case of CC(O)(O)C1(O)C[C@@H]2O[C@@]1(C)n1c3ccccc3c3c4c(c5c6ccccc6n2c5c31)C(=O)NC4 (some centres not stated), the Tm shift is reported as 3.79 Celsius. O=c1cc(-c2ccc(O)cc2)oc2cc(O)cc(O)c12 showed a Tm shift of 3.8 Celsius. NC1=N/C(=C2/CCNC(=O)c3[nH]c(Br)cc32)C(=O)N1 was tested, and the Tm shift was 3.7 Celsius. Compound CCn1cnc2c(Nc3cccc(Cl)c3)nc(N[C@@H]3CCCC[C@@H]3N)nc21 has a Tm shift of 5.45 Celsius. For CC(=O)c1cccc(-c2cnc3ccc(N[C@H](CO)C(C)C)nn23)c1, the Tm shift was 3.77 Celsius. Work on O=Nc1c(-c2c(O)[nH]c3ccc(S(O)(O)O)cc23)[nH]c2ccccc12 yielded a Tm shift of 4.1 Celsius. O=c1[nH]c(O)c2c1c1c3ccccc3nc1n1cncc21 showed a Tm shift of 8 Celsius. With CCC(CO)Nc1ccc2ncc(-c3cccc(C(C)=O)c3)n2n1 (configuration not stated) the Tm shift was 4.59 Celsius. Work on O=C1Nc2ccccc2/C1=C\c1c(Cl)[nH]c2ccccc12 yielded a Tm shift of 3.4 Celsius. For Oc1cc(O)c2c(c1)O[C@H](c1ccc(O)c(O)c1)[C@@H](O)C2, the Tm shift was 3.2 Celsius. For CC(C)(C)c1nc2c3cc[nH]c(=O)c3c3cc(F)ccc3c2[nH]1, the Tm shift was 5.1 Celsius. NCCCn1cc(C2=C(c3c[nH]c4ccccc34)C(=O)NC2=O)c2ccccc21 showed a Tm shift of 5.63 Celsius. For CCC(CO)Nc1ccc2ncc(-c3ccc(C(=O)O)cc3)n2n1 (configuration not stated), the Tm shift was 4.94 Celsius. Compound COc1cc(C2Oc3cc(O)cc(O)c3C(=O)C2=O)ccc1O (configuration not stated) has a Tm shift of 7.24 Celsius. CC(C)[C@@H](CO)Nc1ccc2ncc(-c3cccc(OC(F)(F)F)c3)n2n1 showed a Tm shift of 4.06 Celsius. With CCN1/C(=C/C(C)=O)Sc2ccc(OC)cc21 the Tm shift was 3.1 Celsius. In the case of NCCNc1ncc(C(N)=O)c(Nc2cccc(C(F)(F)F)c2)n1, the Tm shift is reported as 5.8 Celsius. In the case of O=c1c(-c2ccc(O)cc2)coc2cc(O)ccc12, the Tm shift is reported as 3.3 Celsius. In the case of Brc1c(Br)c(Br)c2n[nH]nc2c1Br, the Tm shift is reported as 4.25 Celsius. N#C/C(=C1\Nc2ccccc2S1)c1ccnc(NCCc2cccnc2)n1 showed a Tm shift of 7.4 Celsius. CCC(CO)Nc1ccc2ncc(-c3ccc(F)c(Cl)c3)n2n1 (configuration not stated) was tested, and the Tm shift was 5.54 Celsius. Compound O=C1C(=O)C(c2ccc(O)cc2O)Oc2cc(O)cc(O)c21 (configuration not stated) has a Tm shift of 6.2 Celsius. O=C1C(=O)C(c2ccc(O)cc2)Oc2cc(O)cc(O)c21 (configuration not stated) was tested, and the Tm shift was 5.62 Celsius. Work on CCC(CO)Nc1ccc2ncc(-c3cccc(OC(F)(F)F)c3)n2n1 (configuration not stated) yielded a Tm shift of 5.92 Celsius. In the case of O=C1c2ccccc2-c2n[nH]c3cccc1c23, the Tm shift is reported as 4.6 Celsius. CC1N=C2SC=CN2C(=O)C1CCN1CCC(=C(c2ccccc2)c2ccc(F)cc2)CC1 (configuration not stated) was tested, and the Tm shift was 4.3 Celsius and 3.8 Celsius. In the case of FC(F)(F)Oc1cccc(-c2cnc3ccc(NC4CCOCC4)nn23)c1, the Tm shift is reported as 5.78 Celsius.
